{"source": "PubChem BioAssay (NCI)", "experiment_in_all_cases": "NCI tumour cell line growth inhibition, 48 h", "key": {"786-0 renal": {"test_system": "786-0 renal"}, "A498 renal": {"test_system": "A498 renal"}, "A549 NSCLC": {"test_system": "A549 NSCLC"}, "ACHN renal": {"test_system": "ACHN renal"}, "CAKI-1 renal": {"test_system": "CAKI-1 renal"}, "CCRF-CEM leukemia": {"test_system": "CCRF-CEM leukemia"}, "COLO 205 colon": {"test_system": "COLO 205 colon"}, "DU-145 prostate": {"test_system": "DU-145 prostate"}, "HCT-116 colon": {"test_system": "HCT-116 colon"}, "HCT-15 colon": {"test_system": "HCT-15 colon"}, "HL-60(TB) leukemia": {"test_system": "HL-60(TB) leukemia"}, "HOP-62 NSCLC": {"test_system": "HOP-62 NSCLC"}, "HOP-92 NSCLC": {"test_system": "HOP-92 NSCLC"}, "HS 578T breast": {"test_system": "HS 578T breast"}, "HT29 colon": {"test_system": "HT29 colon"}, "IGROV1 ovarian": {"test_system": "IGROV1 ovarian"}, "K-562 leukemia": {"test_system": "K-562 leukemia"}, "KM12 colon": {"test_system": "KM12 colon"}, "LOX IMVI melanoma": {"test_system": "LOX IMVI melanoma"}, "M14 melanoma": {"test_system": "M14 melanoma"}, "MCF7 breast": {"test_system": "MCF7 breast"}, "MDA-MB-231 breast": {"test_system": "MDA-MB-231 breast"}, "MDA-MB-435": {"test_system": "MDA-MB-435"}, "MDA-N": {"test_system": "MDA-N"}, "MOLT-4 leukemia": {"test_system": "MOLT-4 leukemia"}, "NCI-H226 lung": {"test_system": "NCI-H226 lung"}, "NCI-H23 lung": {"test_system": "NCI-H23 lung"}, "NCI-H460 lung": {"test_system": "NCI-H460 lung"}, "NCI-H522 lung": {"test_system": "NCI-H522 lung"}, "NCI/ADR-RES ovarian": {"test_system": "NCI/ADR-RES ovarian"}, "OVCAR-3 ovarian": {"test_system": "OVCAR-3 ovarian"}, "OVCAR-5 ovarian": {"test_system": "OVCAR-5 ovarian"}, "OVCAR-8 ovarian": {"test_system": "OVCAR-8 ovarian"}, "PC-3 prostate": {"test_system": "PC-3 prostate"}, "RPMI-8226 leukemia": {"test_system": "RPMI-8226 leukemia"}, "SF-268 CNS": {"test_system": "SF-268 CNS"}, "SF-295 CNS": {"test_system": "SF-295 CNS"}, "SF-539 CNS": {"test_system": "SF-539 CNS"}, "SK-MEL-2 melanoma": {"test_system": "SK-MEL-2 melanoma"}, "SK-MEL-5 melanoma": {"test_system": "SK-MEL-5 melanoma"}, "SK-OV-3 ovarian": {"test_system": "SK-OV-3 ovarian"}, "SN12C renal": {"test_system": "SN12C renal"}, "SNB-19 CNS": {"test_system": "SNB-19 CNS"}, "SR leukemia": {"test_system": "SR leukemia"}, "SW-620 colon": {"test_system": "SW-620 colon"}, "T-47D breast": {"test_system": "T-47D breast"}, "U251 CNS": {"test_system": "U251 CNS"}, "UACC-257 melanoma": {"test_system": "UACC-257 melanoma"}, "UACC-62 melanoma": {"test_system": "UACC-62 melanoma"}, "UO-31 renal": {"test_system": "UO-31 renal"}}, "note": "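Compound exposure: 48 hours, 5 concentrations, 96-well plates. TGI: concentration producing complete growth inhibition.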", "data": [{"smiles": "C[C@H]1C[C@H]2[C@@H]3C(C)(C)O[C@]4(O)C(=O)[C@]5(O)[C@@H](C)CC[C@H]1[C@]25C(=O)[C@]34C", "values": [{"measurement": "TGI", "setting": "786-0 renal", "value": "> 100", "unit": "µM"}, {"measurement": "TGI", "setting": "A498 renal", "value": 87, "unit": "µM"}, {"measurement": "TGI", "setting": "A549 NSCLC", "value": "> 100", "unit": "µM"}, {"measurement": "TGI", "setting": "ACHN renal", "value": 72.6, "unit": "µM"}, {"measurement": "TGI", "setting": "CAKI-1 renal", "value": "> 100", "unit": "µM"}, {"measurement": "TGI", "setting": "CCRF-CEM leukemia", "value": "> 100", "unit": "µM"}, {"measurement": "TGI", "setting": "COLO 205 colon", "value": 38.6, "unit": "µM"}, {"measurement": "TGI", "setting": "DU-145 prostate", "value": "> 100", "unit": "µM"}, {"measurement": "TGI", "setting": "HCT-116 colon", "value": "> 100", "unit": "µM"}, {"measurement": "TGI", "setting": "HCT-15 colon", "value": "> 100", "unit": "µM"}, {"measurement": "TGI", "setting": "HL-60(TB) leukemia", "value": 59.2, "unit": "µM"}, {"measurement": "TGI", "setting": "HOP-62 NSCLC", "value": "> 100", "unit": "µM"}, {"measurement": "TGI", "setting": "HOP-92 NSCLC", "value": 62.7, "unit": "µM"}, {"measurement": "TGI", "setting": "HS 578T breast", "value": "> 100", "unit": "µM"}, {"measurement": "TGI", "setting": "HT29 colon", "value": 70.3, "unit": "µM"}, {"measurement": "TGI", "setting": "IGROV1 ovarian", "value": "> 100", "unit": "µM"}, {"measurement": "TGI", "setting": "K-562 leukemia", "value": "> 100", "unit": "µM"}, {"measurement": "TGI", "setting": "KM12 colon", "value": 99.7, "unit": "µM"}, {"measurement": "TGI", "setting": "LOX IMVI melanoma", "value": "> 100", "unit": "µM"}, {"measurement": "TGI", "setting": "M14 melanoma", "value": "> 100", "unit": "µM"}, {"measurement": "TGI", "setting": "MCF7 breast", "value": "> 100", "unit": "µM"}, {"measurement": "TGI", "setting": "MDA-MB-231 breast", "value": "> 100", "unit": "µM"}, {"measurement": "TGI", "setting": "MDA-MB-435", "value": 96.3, "unit": "µM"}, {"measurement": "TGI", "setting": "MDA-N", "value": "> 100", "unit": "µM"}, {"measurement": "TGI", "setting": "MOLT-4 leukemia", "value": 80.7, "unit": "µM"}, {"measurement": "TGI", "setting": "NCI-H226 lung", "value": 98.2, "unit": "µM"}, {"measurement": "TGI", "setting": "NCI-H23 lung", "value": "> 100", "unit": "µM"}, {"measurement": "TGI", "setting": "NCI-H460 lung", "value": "> 100", "unit": "µM"}, {"measurement": "TGI", "setting": "NCI-H522 lung", "value": 48, "unit": "µM"}, {"measurement": "TGI", "setting": "NCI/ADR-RES ovarian", "value": "> 100", "unit": "µM"}, {"measurement": "TGI", "setting": "OVCAR-3 ovarian", "value": 68.1, "unit": "µM"}, {"measurement": "TGI", "setting": "OVCAR-5 ovarian", "value": "> 100", "unit": "µM"}, {"measurement": "TGI", "setting": "OVCAR-8 ovarian", "value": "> 100", "unit": "µM"}, {"measurement": "TGI", "setting": "PC-3 prostate", "value": "> 100", "unit": "µM"}, {"measurement": "TGI", "setting": "RPMI-8226 leukemia", "value": 45.8, "unit": "µM"}, {"measurement": "TGI", "setting": "SF-268 CNS", "value": "> 100", "unit": "µM"}, {"measurement": "TGI", "setting": "SF-295 CNS", "value": 77.5, "unit": "µM"}, {"measurement": "TGI", "setting": "SF-539 CNS", "value": "> 100", "unit": "µM"}, {"measurement": "TGI", "setting": "SK-MEL-2 melanoma", "value": 84.3, "unit": "µM"}, {"measurement": "TGI", "setting": "SK-MEL-5 melanoma", "value": 81.7, "unit": "µM"}, {"measurement": "TGI", "setting": "SK-OV-3 ovarian", "value": "> 100", "unit": "µM"}, {"measurement": "TGI", "setting": "SN12C renal", "value": "> 100", "unit": "µM"}, {"measurement": "TGI", "setting": "SNB-19 CNS", "value": "> 100", "unit": "µM"}, {"measurement": "TGI", "setting": "SR leukemia", "value": 96.6, "unit": "µM"}, {"measurement": "TGI", "setting": "SW-620 colon", "value": "> 100", "unit": "µM"}, {"measurement": "TGI", "setting": "T-47D breast", "value": 70.9, "unit": "µM"}, {"measurement": "TGI", "setting": "U251 CNS", "value": "> 100", "unit": "µM"}, {"measurement": "TGI", "setting": "UACC-257 melanoma", "value": "> 100", "unit": "µM"}, {"measurement": "TGI", "setting": "UACC-62 melanoma", "value": "> 100", "unit": "µM"}, {"measurement": "TGI", "setting": "UO-31 renal", "value": "> 100", "unit": "µM"}]}]}
